4 compounds from ChEMBL document CHEMBL1136819, “Synthesis, anticholinesterase activity and structure-activity relationships of m-Aminobenzoic acid derivatives” (Bioorg Med Chem Lett, 2003) can be followed below.

Bounds are passed on as bounds.

Data set [1] can be described thus: Partition coefficient (logP). As to conditions: octanol/water. It counts as physicochemical.
Data set [2] in a line: Lethal dose was reported. In kind it is ADME.
Data set [3] concerns the target T1, Acetylcholinesterase (Torpedo californica, UniProt P04058).
Description: Inhibitory activity against acetylcholinesterase (AChE) from Torpedo californica (Reversible type of inhibition)
Data set [4] has as its target T1, Acetylcholinesterase. Briefly: Inhibitory activity against acetylcholinesterase (AChE) from Torpedo californica (Irreversible type of inhibition). The arrangement: species or system Tetronarce californica.

T1 sequence (P04058 whole entry): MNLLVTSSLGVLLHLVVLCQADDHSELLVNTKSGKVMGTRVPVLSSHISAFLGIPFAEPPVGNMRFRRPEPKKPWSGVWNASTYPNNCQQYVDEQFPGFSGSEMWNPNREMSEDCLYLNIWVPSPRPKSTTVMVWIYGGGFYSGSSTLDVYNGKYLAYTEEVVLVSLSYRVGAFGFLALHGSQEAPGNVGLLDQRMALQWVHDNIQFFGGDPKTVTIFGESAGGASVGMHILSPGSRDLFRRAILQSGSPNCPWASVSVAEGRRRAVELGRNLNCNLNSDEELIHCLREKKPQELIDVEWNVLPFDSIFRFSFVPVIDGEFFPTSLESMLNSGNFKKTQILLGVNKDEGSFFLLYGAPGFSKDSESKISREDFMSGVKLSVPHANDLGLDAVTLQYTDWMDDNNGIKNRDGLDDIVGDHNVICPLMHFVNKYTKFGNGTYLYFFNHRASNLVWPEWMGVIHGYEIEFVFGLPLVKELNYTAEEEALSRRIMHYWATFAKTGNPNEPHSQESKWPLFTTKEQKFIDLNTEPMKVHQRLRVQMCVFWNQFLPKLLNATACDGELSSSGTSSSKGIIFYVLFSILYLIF

As a reminder, the logP is a log measure of how a compound divides between an organic and an aqueous phase. The term LD50 denotes the dose expected to kill half of the subjects tested. Higher therefore signals a less toxic substance. One may read the IC50 as the midpoint of a concentration-inhibition curve. Low readings indicate higher potency, high ones lower potency. Take `O=C(O)CCC(=O)Nc1cccc(C(=O)O)c1`: in data set [1], the logP turned out to be 1.41. In data set [2], this compound displayed an LD50 of over 1000 mg/kg. In addition, the IC50 against Acetylcholinesterase [3] was 92.5 nM.

In turn, `O=C(O)/C=C\C(=O)Nc1cccc(C(=O)O)c1` registered a logP in data set [1] of 1.09. At Acetylcholinesterase [4], this compound came in with an IC50 of 357 nM. The compound further yielded an LD50 in data set [2] of over 1000 mg/kg.

With `O=C(O)c1cccc(N2C(=O)CCC2=O)c1`, the logP in data set [1] worked out at 1.81. The compound further registered an LD50 in data set [2] of over 1000 mg/kg. Also, the IC50 against Acetylcholinesterase [3] stood at 33.4 nM.

The compound `O=C(O)c1cccc(N2C(=O)C=CC2=O)c1` had a logP in data set [1] of 1.48. At Acetylcholinesterase [4], the IC50 was 256 nM.
